Results published in ChEMBL document CHEMBL2390914, “Discovery and SAR of PF-4693627, a potent, selective and orally bioavailable mPGES-1 inhibitor for the potential treatment of inflammation” (Bioorg Med Chem Lett, 2013).

Legend:
[1] = Oral bioavailability in Sprague-Dawley rat at 1 mg/kg; format: ADME, organism-based; conditions: in vivo
[2] = Plasma concentration in Duncan Hartley guinea pig at 10 mg/kg, po; format: ADME, organism-based, Cavia porcellus; parameters: dose 10 mg/kg, route oral; conditions: in vivo
[3] = Mean residence time in Sprague-Dawley rat at 1 mg/kg, po; format: ADME, organism-based; parameters: dose 1 mg/kg, route oral; conditions: in vivo
[4] = Volume of distribution at steady state in Sprague-Dawley rat at 1 mg/kg, iv; format: ADME, organism-based; parameters: dose 1 mg/kg, route intravenous; conditions: in vivo, read-out: Vdss

Structure (SMILES) | bioavailability [1] | concentration [2] | MRT [3] | Vd [4]
O=C(N[C@H]1CCC[C@H](CO)C1)C1CCN(c2nc3cc(Cl)c(-c4ccc(OC(F)(F)F)cc4)cc3o2)CC1 | 86% | 510 nM | 7.78 h | 6.4 L/kg
CCc1cc2oc(N3CCC(C(=O)N[C@H]4CCC[C@H](CO)C4)CC3)nc2cc1Cl |  |  | 0.44 h | 2.1 L/kg
COc1ccc2cc([C@H](C)C(=O)O)ccc2c1 [NAPROXEN] |  | 154000 nM |  | 
O=C(N[C@H]1CCC[C@H](CO)C1)C1CCN(c2nc3cc(Cl)c(C(F)F)cc3o2)CC1 |  |  | 0.39 h | 1.4 L/kg
O=C(N[C@H]1CCC[C@H](CO)C1)C1CCN(c2nc3cc(Cl)ccc3o2)CC1 | 66% |  | 0.7 h | 0.72 L/kg

The next lines start with the values.

bioavailability [1] | concentration [2] | MRT [3] | Vd [4] | Structure (SMILES)
59% | 1200 nM | 4.42 h | 3 L/kg | O=C(N[C@H]1CCC[C@H](CO)C1)C1CCN(c2nc3cc(Cl)c(-c4ccc(Cl)cc4)cc3o2)CC1
17% |  | 6.26 h | 2.4 L/kg | CCOc1ccc(-c2cc3oc(N4CCC(C(=O)N[C@H]5CCC[C@H](CO)C5)CC4)nc3cc2Cl)cc1
42% | 1600 nM | 7.22 h | 14 L/kg | O=C(N[C@H]1CCC[C@H](CO)C1)C1CCN(c2nc3cc(Cl)c(C(F)(F)F)cc3o2)CC1
